# Calls of active or inactive are those of the source. No rule for the calls is given here.
# Molecular target: Serine/threonine-protein kinase mTOR (Homo sapiens) (UniProt P42345)
# Assay: binders of mTOR FRB domain, biophysical, NMR (AID 1648)
# Conditions: NMR binding to FRB domain, chemical shift
# Sequence of Serine/threonine-protein kinase mTOR (Homo sapiens) (P42345 2015-2114): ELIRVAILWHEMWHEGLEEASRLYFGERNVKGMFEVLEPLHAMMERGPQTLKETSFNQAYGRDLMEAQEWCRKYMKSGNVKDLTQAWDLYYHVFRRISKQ
row,Compound,Kd
1,Cc1cc(=O)n2[nH]c(C)cc2n1,> 4 mM (inactive)
2,Oc1ccccc1-c1nnco1,> 4 mM (inactive)
3,CCc1ccccc1OCc1nnc(N)s1,> 4 mM (inactive)
4,CCC(=O)NC(=S)Nc1ccc(O)cc1,> 4 mM (inactive)
5,Cn1c(=O)cc(N2CCCCC2)[nH]c1=O,> 4 mM (inactive)
6,Cc1ccc(NC(=O)/C=C2\SC(=O)NC2=O)cc1,> 4 mM (inactive)
7,CCOC(=O)c1c(C)nc2ncccn12,> 4 mM (inactive)
8,COc1cc(C)c(Cl)cc1S(=O)(=O)N(C)C,> 4 mM (inactive)
9,O=C(NC(O)C(=O)c1ccccc1)c1ccco1 (stereo unspecified),> 4 mM (inactive)
10,CC(C)=CCc1c(O)cc(C)oc1=O,> 4 mM (inactive)
11,OCC1CNc2ccccc2O1 (stereo unspecified),> 4 mM (inactive)
12,Cc1cc(C(=O)NN2CCOCC2)c(C)o1,> 4 mM (inactive)
13,NC(Cn1ccc(=O)c(O)c1)C(=O)O (stereo unspecified),> 4 mM (inactive)
14,c1n[nH]cc1-c1cn[nH]c1,> 4 mM (inactive)
15,CCOC(=O)C1CCC(=O)c2cccn21 (stereo unspecified),> 4 mM (inactive)
16,COc1ccc(-c2oc3ccccc3c(=O)c2O)cc1OC,> 4 mM (inactive)
17,O=C(Nc1ccc(N2CCCC2=O)cc1)c1cccc(F)c1,> 4 mM (inactive)
18,Cc1c(-c2ccc(F)cc2)[n+](=O)c2c(n1[O-])CCC2,> 4 mM (inactive)
19,CN1C(=O)/C(=C\c2ccc[nH]2)SC1=S,> 4 mM (inactive)
20,NC(CSCSCC(N)C(=O)O)C(=O)O (stereo unspecified),> 4 mM (inactive)
21,Cc1ccccc1NC(=O)c1ccccc1,> 4 mM (inactive)
22,O=C(O)c1cnc2n(c1=O)CCS2,> 4 mM (inactive)
23,S=c1[nH]cnc2sccc12,> 4 mM (inactive)
24,O=C(NC(=S)NC1CCS(=O)(=O)C1)c1ccccc1 (stereo unspecified),> 4 mM (inactive)

row,Compound,Kd
1,OC1CCC(C(F)(F)F)CC1 (stereo unspecified),> 4 mM (inactive)
2,O=C1CC(=O)N(c2ccccc2)c2ccccc21,> 4 mM (inactive)
3,Cc1nc(-c2ccccc2)ncc1CO,> 4 mM (inactive)
4,COc1cc2c(cc1OC)Cc1cc(OC)c(OC)cc1Cc1cc(OC)c(OC)cc1C2,> 4 mM (inactive)
5,COc1ccc(CN2CCNC(=O)C2CC(=O)O)cc1C (stereo unspecified),> 4 mM (inactive)
6,CN1C(=O)c2ccc(N=C3NC(=O)CS3)cc2C1=O,> 4 mM (inactive)
7,Nc1ccc2nccnc2c1,> 4 mM (inactive)
8,Cc1cc(NC(=O)c2ccc3c(c2)OCCO3)no1,> 4 mM (inactive)
9,COc1cc2occc2c2oc(=O)ccc12,> 4 mM (inactive)
10,CCC(/C=C/[C@@H](C)[C@H]1CCC2C3CC=C4C[C@@H](O)CC[C@]4(C)C3CC[C@@]21C)C(C)C (stereo partly specified),> 4 mM (inactive)
11,Cc1cc(N(CN2CCCC2=O)C(=O)c2ccccc2)no1,> 4 mM (inactive)
12,O=C(c1cccc(C(F)(F)F)c1)N1CCCC1,> 4 mM (inactive)
13,CC1=NN(C(N)=S)C(C)(C)C1,> 4 mM (inactive)
14,COC(=O)C1[C@H]2C[C@H]3c4[nH]c5ccccc5c4CCN3C[C@@H]2CC[C@@H]1O (stereo partly specified),> 4 mM (inactive)
15,Cc1cc(=O)cc(C)n1-c1ccccc1N,> 4 mM (inactive)
16,COc1ccccc1-c1nc(-c2ccc(C)nc2OC)no1,> 4 mM (inactive)
17,O=C(O)c1cccnc1N1CCCC1,> 4 mM (inactive)
18,CC(=O)O[C@@H]1CC2C(C)(CC[C@H](O)C2(C)C)C2CC[C@]3(C)C(=CC(=O)O[C@H]3c3ccoc3)C21C (stereo partly specified),> 4 mM (inactive)
19,COc1c(CC=C(C)C)c2c(c3oc(=O)c(-c4ccc(O)cc4)c(O)c13)C=CC(C)(C)O2,> 4 mM (inactive)
20,Cc1nnc(SCc2ccc(F)cc2)s1,> 4 mM (inactive)
21,OCc1snnc1-c1ccccc1,> 4 mM (inactive)
22,COc1ccc2c(c1)=C(c1sc(N)nc1O)C(=O)N=2,> 4 mM (inactive)
23,CC(NC(=O)C1CCCCC1)C(=O)NC1=NCCS1 (stereo unspecified),> 4 mM (inactive)
24,CCOc1cc(C)c(Cl)cc1S(=O)(=O)N(C)C,> 4 mM (inactive)

row,Compound,Kd
1,Cc1cc(=O)cc(C)n1-c1ccccc1N1CCOCC1,> 4 mM (inactive)
2,O=C(Nc1ccccc1Cl)c1cnccn1,> 4 mM (inactive)
3,COC(=O)/C(C)=C\CC12OC(C)(C)C3CC(C=C4C(=O)c5c(OC)c6c(c(CC=C(C)C)c5OC431)OC(C)(CCC=C(C)C)C=C6)C2=O (stereo unspecified),> 4 mM (inactive)
4,Cn1cc(Cl)c(C(=O)Nc2ccc(F)cc2F)n1,> 4 mM (inactive)
5,NC(=O)C12CC3CC(C1)C(=O)C(C3)C2,> 4 mM (inactive)
6,CCOC(=O)C1CCN(c2ccc(C#N)cc2)CC1,> 4 mM (inactive)
7,COc1ccc(C)cc1-n1c(-c2ccncc2)n[nH]c1=S,> 4 mM (inactive)
8,Fc1ccc(Br)cc1/C=N/n1cnnc1,> 4 mM (inactive)
9,CC1CCN(C(=O)c2cc3ccccc3o2)CC1,> 4 mM (inactive)
10,CC12CN([N+](=O)[O-])C3(C(N)=O)CC1CCC23C (stereo unspecified),> 4 mM (inactive)
11,Cc1cc(C(=O)N2CCN(c3ncccn3)CC2)c(C)o1,> 4 mM (inactive)
12,COc1ccccc1NC(=O)c1snnc1C,> 4 mM (inactive)
13,CCOC(=O)c1[nH]cnc1C(=O)OC(C)C,> 4 mM (inactive)
14,Cc1cc(C(=O)Nc2sc3c(c2C#N)CCC3)no1,> 4 mM (inactive)
15,CC(C)=CC(=O)Nc1ccccc1Br,> 4 mM (inactive)
16,Cc1ccc(Nc2nc(N)nc(CC#N)n2)cc1,> 4 mM (inactive)
17,N#Cc1cn(CC(=O)N2CCCC2)c2ccccc12,> 4 mM (inactive)
18,CC(C)Oc1ccc(C2CC(=O)NNC2=O)cc1 (stereo unspecified),> 4 mM (inactive)
19,O=C(O)C1Cc2c([nH]c3ccccc23)CN1 (stereo unspecified),> 4 mM (inactive)
20,COC1C(O)C(O)C(O)[C@@H](O)C1O (stereo partly specified),> 4 mM (inactive)
21,CN1CCN(c2cc(=O)n(C)c(=O)[nH]2)CC1,> 4 mM (inactive)
22,COc1ccc(-c2nnsc2N)cc1,> 4 mM (inactive)
23,O=C(O)c1cccc2c1OCC2,> 4 mM (inactive)
24,Cc1cccc(C)c1NC(=O)/C=C/C(=O)O,> 4 mM (inactive)

row,Compound,Kd
1,CN1CCC(N2CCOCC2)CC1,> 4 mM (inactive)
2,CC(=O)O[C@H]1CC[C@@]2(C)C(C[C@@H](OC(C)=O)[C@@]3(C)C4=CC(=O)O[C@@H](c5ccoc5)[C@]4(C)CCC23)C1(C)C (stereo partly specified),> 4 mM (inactive)
3,C[C@H]1OC(O[C@H]2[C@@H](O)CC(O[C@H]3[C@@H](O)C[C@H](O[C@H]4CC[C@]5(C)C6CC[C@]7(C)[C@@H](C8=CC(=O)OC8)[C@@H](O)C[C@]7(O)[C@@H]6CC[C@@H]5C4)O[C@@H]3C)O[C@@H]2C)C[C@H](O)C1O (stereo partly specified),> 4 mM (inactive)
4,COc1cccc(NC(=O)c2nc3ncccn3n2)c1,> 4 mM (inactive)
5,CC(=O)OCC[C@H](C)CCC=C(C)C,> 4 mM (inactive)
6,Cc1ccccc1OCC(=O)O,> 4 mM (inactive)
7,N#Cc1cc2c(nc1SCc1ccncc1)CCC2,> 4 mM (inactive)
8,Cc1cc(O)c(NC(=O)c2ccco2)cc1C,> 4 mM (inactive)
9,c1coc(CNc2nc(-c3ccncc3)cs2)c1,> 4 mM (inactive)
10,C=C[C@](C)(O)CCC=C(C)C,> 4 mM (inactive)
11,c1ccc(C[N+]23CCN(CC2)c2ccccc23)cc1,> 4 mM (inactive)
12,CC1(C)Cn2c(nnc2-c2ccccc2)S1,> 4 mM (inactive)
13,OCCNC(=S)Nc1ccccc1,> 4 mM (inactive)
14,O=C1CCC(C(=O)NCc2ccc(Cl)cc2)N1 (stereo unspecified),> 4 mM (inactive)
15,Cc1cc(C)n(-c2nc(N)cc(=O)[nH]2)n1,> 4 mM (inactive)
16,COC(=O)c1ccccc1N(C)S(C)(=O)=O,> 4 mM (inactive)
17,O=C(c1ccncc1)N1CCN(C(=O)c2ccncc2)CC1,> 4 mM (inactive)
18,CC(=O)Nc1ccc(C(=O)NC2CCSC2=O)cc1 (stereo unspecified),> 4 mM (inactive)
19,COc1ccc(C(O)c2nccn2C)cc1 (stereo unspecified),> 4 mM (inactive)
20,CN(C)C1CCS(=O)(=O)C1 (stereo unspecified),> 4 mM (inactive)
21,NS(=O)(=O)c1ccc(N=Cc2ccc[nH]2)cc1,> 4 mM (inactive)
22,c1ccc(Cc2nnc3sc(-c4cccnc4)nn23)cc1,> 4 mM (inactive)
23,COc1ccc2nc(SCC(N)=O)[nH]c2c1,> 4 mM (inactive)
24,COC(=O)c1ccc(NC(=O)CC2NCCNC2=O)cc1 (stereo unspecified),> 4 mM (inactive)

row,Compound,Kd
1,Cc1cc(NC(=O)c2cccc(N3C(=O)CCC3=O)c2)no1,> 4 mM (inactive)
2,O=C(O)C1CC2CC1CCC2O (stereo unspecified),> 4 mM (inactive)
3,C=C[C@@](C)(O)CCC1C(=C)C[C@H](O)C2C(C)(C)CCCC12C (stereo partly specified),> 4 mM (inactive)
4,CCOC(=O)CNc1ncnc2c1nnn2CC,> 4 mM (inactive)
5,Cn1ccc(NC(=S)NC2CCCC2)n1,> 4 mM (inactive)
6,COc1cc(/C=C/C(=O)/C=C(O)/C=C/c2ccc(O)c(OC)c2)ccc1O,> 4 mM (inactive)
7,NC(=S)NC(=O)CN1C(=O)c2ccccc2C1=O,> 4 mM (inactive)
8,CNC(=O)C(=O)NCc1ccc(C)cc1,> 4 mM (inactive)
9,Cn1c([O-])c([N+](C)(C)C)c(=O)n(C)c1=O,> 4 mM (inactive)
10,CC1CCN(C(=O)c2ccc(NS(C)(=O)=O)cc2)CC1,> 4 mM (inactive)
11,CS(=O)(=O)Cc1ccccc1,> 4 mM (inactive)
12,C=C1C(N)CC2CC1C2(C)C (stereo unspecified),> 4 mM (inactive)
13,C=C1C([C@]2(C)C(CC(=O)OC)[C@@](C)(COC(C)=O)OC(=O)C[C@@H]2OC(C)=O)[C@@H](OC=O)[C@H](OC(=O)C(O)C(C)CC)[C@@]2(C)[C@H](c3ccoc3)CC(=O)C12O (stereo partly specified),> 4 mM (inactive)
14,Cn1c(=O)n(CC(=O)N2CCOCC2)c2ccccc21,> 4 mM (inactive)
15,C[n+]1ccc(C(=O)[O-])cc1,> 4 mM (inactive)
16,CC(=O)Nc1ccc(C(=O)NC2=NCCS2)cc1,> 4 mM (inactive)
17,COC(=O)C[C@@H]1C2(C)C(=O)[C@@H](CC3=C4CC(=O)O[C@@H](c5ccoc5)[C@]4(C)CCC32)[C@H](OC(C)=O)C1(C)C (stereo partly specified),> 4 mM (inactive)
18,Nc1nncn1C(=O)c1c(Cl)cccc1Cl,> 4 mM (inactive)
19,O=C(CSc1ncn[nH]1)c1ccc2c(c1)OCO2,> 4 mM (inactive)
20,COc1ccc(C(=O)/C=C2\NC(=S)NC2=O)cc1,> 4 mM (inactive)

# Reference: PubChem BioAssay AID1648 (Sanford-Burnham Center for Chemical Genomics, 2009)
